Laboratory results as given in patent US6841519B1, “Isoxazoline derivatives and herbicides containing the same as the active ingredient” (Kumiai Chemical Industry Co., Ltd., priority 1999, dated 2005).

Experiments:
Type in all cases: in vivo
rice (Or) = assay: Test for crop selectivity by paddy field soil treatment (Test Example 4), phytotoxicity to rice; details: transplanted two-leaf stage rice, 100 g/10 a active ingredient, 21st day
Description: (§1) [table] <Test Example 4> Test For Crop Selectivity By Paddy Field Soil Treatment A paddy field soil was filled in a plastic pot of 100 cm^2 and subjected to puddling. Seeds of Echinochloa oryzicola Vasing. (Eo) were sowed; two-leaf stage seedlings of rice (Or) were transplanted in a depth of 2 cm; and water was filled in a depth of 3 cm. Next day, wettable powders produced in accordance with the Formulation 1 were diluted with water and dropped on the water surface. The application amount of each wettable powder was 100 g per 10 ares in terms of the active ingredient. Then, breeding was made in a greenhouse. At the 21st day from the treatment, the phytotoxicity and herbicidal effect of each wettable powder were examined in accordance with the standard shown in Table 40.

[1] = test system: Echinochloa crus-galli (L.) Beauv. var. crusgalli (Ec); assay: Test for herbicidal effect by upland foliage treatment (Test Example 3); details: 100 g/10 a active ingredient, examined at 14th day
In short: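 Scored 14 days post-spray against a graded standard: greenhouse-grown Ec, 2 weeks old in upland soil, received whole-foliage application of diluted wettable powder (100 g active ingredient per 10 ares, spray volume 100 L per 10 ares).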

[2] = test system: Echinochloa oryzicola Vasing. (Eo); assay: Test for crop selectivity by paddy field soil treatment (Test Example 4), herbicidal effect on Eo; details: 100 g/10 a active ingredient, 21st day
Description: as §1

[3] = test system: Echinochloa oryzicola Vasing. (Eo); assay: Test for herbicidal effect by paddy field soil treatment (Test Example 1); details: application amount (active ingredient) 100 g/10 a, examined at the 21st day from the treatment, index per Table 40
In short: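 Scored on a standard scale at day 21 in the greenhouse: herbicidal effect of wettable powder applied to flooded water (3 cm depth) at 100 g a.i./10 ares, one day after sowing Eo into puddled paddy soil.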

[4] = test system: Echinochloa crus-galli (L.) Beauv. var. crusgall (Ec); assay: Test for herbicidal effect by upland field soil treatment (Test Example 2), Ec
In short: (§2)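 Pre-emergence soil treatment: wettable powder diluted in water and sprayed on soil just sown with Ec and Se seeds, delivering 100 g active ingredient per 10 ares in 100 liters per 10 ares. Herbicidal effect was rated against a fixed scale 21 days later, after greenhouse growth.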

[5] = test system: Setaria viridis (L.) Beauv. (Se); assay: Test for herbicidal effect by upland field soil treatment (Test Example 2), Se
In short: as §2

[6] = 100 g/10 a active ingredient, examined at 21st day
[7] = application amount (active ingredient) 100 g/10 a, examined at the 21st day from the treatment, index per Table 40

Compound	Phytotoxicity to Or (rice (Or))	Herbicidal effect to Ec [1]	Herbicidal effect to Eo [2]	Herbicidal effect to Eo [3]	Herbicidal effect to Ec [4, 6]	Herbicidal effect to Se [5, 6]	Herbicidal effect to Ec [4, 7]	Herbicidal effect to Se [5, 7]
CC12CCCCCC1C(S(=O)(=O)Cc1c(F)cccc1F)=NO2 (stereo not drawn) [Compound 1-556]	0 (A herbicidal effect or phytotoxicity of 0% to less than 10%)	4 (A herbicidal effect or phytotoxicity of 70% to less than 90%)	5 (A herbicidal effect or phytotoxicity of 90% or more)	5 (A herbicidal effect or phytotoxicity of 90% or more)	5 (A herbicidal effect or phytotoxicity of 90% or more)	4 (A herbicidal effect or phytotoxicity of 70% to less than 90%)	–	–
O=S(=O)(Cc1c(F)cccc1F)C1=NOC(C2CC2)(C2CC2)C1 [Compound 1-520]	1 (A herbicidal effect or phytotoxicity of 10% to less than 30%)	4 (A herbicidal effect or phytotoxicity of 70% to less than 90%)	5 (A herbicidal effect or phytotoxicity of 90% or more)	5 (A herbicidal effect or phytotoxicity of 90% or more)	5 (A herbicidal effect or phytotoxicity of 90% or more)	5 (A herbicidal effect or phytotoxicity of 90% or more)	–	–
COC(=O)c1ccccc1CS(=O)(=O)C1=NOC(C)(C)C1 [Compound 1-145]	0 (A herbicidal effect or phytotoxicity of 0% to less than 10%)	4 (A herbicidal effect or phytotoxicity of 70% to less than 90%)	5 (A herbicidal effect or phytotoxicity of 90% or more)	5 (A herbicidal effect or phytotoxicity of 90% or more)	–	–	5 (A herbicidal effect or phytotoxicity of 90% or more)	5 (A herbicidal effect or phytotoxicity of 90% or more)
C=CCOC(=O)c1ccccc1CS(=O)(=O)C1=NOC(C)(C)C1 [Compound 1-599]	1 (A herbicidal effect or phytotoxicity of 10% to less than 30%)	4 (A herbicidal effect or phytotoxicity of 70% to less than 90%)	5 (A herbicidal effect or phytotoxicity of 90% or more)	5 (A herbicidal effect or phytotoxicity of 90% or more)	5 (A herbicidal effect or phytotoxicity of 90% or more)	5 (A herbicidal effect or phytotoxicity of 90% or more)	–	–
COc1ccc(C(C)C)c(C)c1CS(=O)(=O)C1=NOC(C)(C)C1 [Compound 1-584]	1 (A herbicidal effect or phytotoxicity of 10% to less than 30%)	5 (A herbicidal effect or phytotoxicity of 90% or more)	5 (A herbicidal effect or phytotoxicity of 90% or more)	5 (A herbicidal effect or phytotoxicity of 90% or more)	–	–	–	–
CCCCOc1cccc(Cl)c1CS(=O)(=O)C1=NOC(C)(C)C1 [Compound 1-574]	1 (A herbicidal effect or phytotoxicity of 10% to less than 30%)	4 (A herbicidal effect or phytotoxicity of 70% to less than 90%)	5 (A herbicidal effect or phytotoxicity of 90% or more)	5 (A herbicidal effect or phytotoxicity of 90% or more)	5 (A herbicidal effect or phytotoxicity of 90% or more)	5 (A herbicidal effect or phytotoxicity of 90% or more)	–	–
CC(C)C1(C)CC(S(=O)(=O)Cc2c(F)cccc2F)=NO1 (stereo not drawn) [Compound 1-368]	1 (A herbicidal effect or phytotoxicity of 10% to less than 30%)	–	5 (A herbicidal effect or phytotoxicity of 90% or more)	5 (A herbicidal effect or phytotoxicity of 90% or more)	–	–	5 (A herbicidal effect or phytotoxicity of 90% or more)	4 (A herbicidal effect or phytotoxicity of 70% to less than 90%)
